Data reported in US20180214423A1, “PHARMACEUTICAL COMPOSITION COMPRISING RAPAMYCIN OR DERIVATIVE THEREOF, AND METHOD FOR PRODUCING THE SAME” (NIPPON KAYAKU KABUSHIKI KAISHA, priority 2015, published 2018).

Key:
[1] = Test Example B1: preservation stability of everolimus compositions and active pharmaceutical ingredient, residual everolimus by HPLC; assay type: physicochemical; conditions: light-shielded, 60° C.
Method: It is to be noted that, in the analysis using liquid chromatography (HPLC) in the present test examples, the measurement was carried out under the following conditions. • Measurement column: Zorbax Eclipse XDB-C18, Rapid resolution HT, 100 mm ×4.6 mm, L8 μm • Detector: ultraviolet absorption spectrophotometer (measurement wavelength: 278 nm) • Column temperature: 45° C. • Mobile phase A: 0.1% formic acid; mobile phase B: methanol/acetonitrile=50/50 • Concentration gradient of mobile phase:
The pharmaceutical compositions obtained by the methods of Example B1 and Comparative Examples B1 to B4 (approximately 1 g each) and the active pharmaceutical ingredient of everolimus (100 mg) were each collected in a brown sample bottle, and were then preserved under light-shielded conditions at 60° C., in a desiccator, the humidity of which had been adjusted with a saturated cobalt chloride aqueous solution (relative humidity: approximately 49%), while the bottle was uncapped.
The residual amounts of everolimus 10 days and 14 days after initiation of the preservation test were measured by liquid chromatography (HPLC), and the residual percentages of everolimus at individual time points were then calculated. It is to be noted that the residual percentage was calculated according to the following formula. The results are shown in Table 5. • Residual percentage (%) of everolimus (peak area of everolimus measured by HPLC at each time point/weighed value of powders)/(peak area of everolimus measured by HPLC before preservation (initial)/weighed value of powders)× 100.

[2] = cited from earlier work

| Compound | decomposition reaction such as oxidation on preservation (in words) ([1]; relative humidity approximately 49%) | Residual percentage (%) of everolimus, Value on Day 10 ([1]; relative humidity approximately 49% (saturated cobalt chloride), uncapped, Day 10) | Residual percentage (%) of everolimus, Value on Day 14 ([1]; relative humidity approximately 49% (saturated cobalt chloride), uncapped, Day 14) | critical relative humidity at 25° C. [2] |
| --- | --- | --- | --- | --- |
| CO[C@H]1C[C@@H]2CC[C@@H](C)[C@@](O)(O2)C(=O)C(=O)N2CCCC[C@H]2C(=O)O[C@H]([C@H](C)C[C@@H]2CC[C@@H](OCCO)[C@H](OC)C2)CC(=O)[C@H](C)/C=C(\C)[C@@H](O)[C@@H](OC)C(=O)[C@H](C)C[C@H](C)/C=C/C=C/C=C/1C [40-O-(2-hydroxyethyl)rapamycin] | rapidly progresses | 5% | 2% | – |
| OC[C@H]1O[C@@H](O[C@H]2[C@H](O)[C@@H](O)C(O)O[C@@H]2CO)[C@H](O)[C@@H](O)[C@H]1O (stereo partly shown) [lactose] | – | – | – | ≥ 95% |
| OC[C@@H](O)[C@@H](O)[C@H](O)[C@H](O)CO [mannitol] | – | – | – | ≥ 95% |
| OC[C@@H](O)[C@@H](O)[C@H](O)[C@@H](O)CO [sorbitol] | – | – | – | approximately 70% |
| OC[C@H]1O[C@H](O[C@H]2O[C@H](CO)[C@@H](O)[C@H](O)[C@H]2O)[C@H](O)[C@@H](O)[C@@H]1O [trehalose] | – | – | – | ≥ 95% |
